The text below walks through data of ChEMBL document CHEMBL1128553, “Synthesis of 1,4,7,8,9,10-hexahydro-9-methyl-6-nitropyrido[3,4-f]- quinoxaline-2,3-dione and related quinoxalinediones: characterization of alpha-amino-3-hydroxy-5-methyl-4-isoxazolepropionic acid (and N-methyl-D-aspartate) receptor and anticonvulsant activity” (J Med Chem, 1995).

The target of test [1] is T1, Glutamate receptor ionotropic, AMPA (Rattus norvegicus, UniProt P19490+P19491+P19492+P19493).
Description: Antagonistic activity against Ionotropic glutamate receptor AMPA induced LDH release in cultured rat cortical neurons after 24 hr 100 uM AMPA
The target in test [2] is Glutamate receptor ionotropic, AMPA (Rattus norvegicus, UniProt P19491+P19492+P19493+P19490).
Chain of Glutamate receptor ionotropic, AMPA (Rattus norvegicus, UniProt P19491+P19492+P19493+P19490) (P19491 whole entry): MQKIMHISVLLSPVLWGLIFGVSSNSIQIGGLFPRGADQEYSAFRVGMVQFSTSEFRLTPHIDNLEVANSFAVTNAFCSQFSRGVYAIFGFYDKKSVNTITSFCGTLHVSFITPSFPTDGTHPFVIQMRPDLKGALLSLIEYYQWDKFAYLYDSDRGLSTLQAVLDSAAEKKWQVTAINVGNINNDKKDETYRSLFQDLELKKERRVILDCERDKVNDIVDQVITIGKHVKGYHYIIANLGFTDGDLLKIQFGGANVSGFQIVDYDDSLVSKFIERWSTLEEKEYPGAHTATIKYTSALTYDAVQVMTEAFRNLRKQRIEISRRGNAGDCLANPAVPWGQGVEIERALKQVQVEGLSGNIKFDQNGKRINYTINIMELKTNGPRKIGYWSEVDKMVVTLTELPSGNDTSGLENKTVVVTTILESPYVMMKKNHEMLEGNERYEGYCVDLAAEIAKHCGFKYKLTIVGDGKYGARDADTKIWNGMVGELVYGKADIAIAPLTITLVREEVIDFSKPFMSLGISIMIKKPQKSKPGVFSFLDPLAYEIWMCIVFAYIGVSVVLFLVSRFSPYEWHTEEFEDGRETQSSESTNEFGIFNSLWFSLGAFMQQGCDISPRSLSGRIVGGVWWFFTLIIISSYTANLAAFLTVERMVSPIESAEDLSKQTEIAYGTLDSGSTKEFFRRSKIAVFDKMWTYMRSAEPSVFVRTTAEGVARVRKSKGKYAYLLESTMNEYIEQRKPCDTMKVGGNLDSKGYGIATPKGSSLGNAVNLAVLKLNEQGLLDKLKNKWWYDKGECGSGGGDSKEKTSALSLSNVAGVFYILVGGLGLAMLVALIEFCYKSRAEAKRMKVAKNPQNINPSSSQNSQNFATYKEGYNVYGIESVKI
Chain of Glutamate receptor ionotropic, AMPA (Rattus norvegicus, UniProt P19491+P19492+P19493+P19490) (P19492 whole entry): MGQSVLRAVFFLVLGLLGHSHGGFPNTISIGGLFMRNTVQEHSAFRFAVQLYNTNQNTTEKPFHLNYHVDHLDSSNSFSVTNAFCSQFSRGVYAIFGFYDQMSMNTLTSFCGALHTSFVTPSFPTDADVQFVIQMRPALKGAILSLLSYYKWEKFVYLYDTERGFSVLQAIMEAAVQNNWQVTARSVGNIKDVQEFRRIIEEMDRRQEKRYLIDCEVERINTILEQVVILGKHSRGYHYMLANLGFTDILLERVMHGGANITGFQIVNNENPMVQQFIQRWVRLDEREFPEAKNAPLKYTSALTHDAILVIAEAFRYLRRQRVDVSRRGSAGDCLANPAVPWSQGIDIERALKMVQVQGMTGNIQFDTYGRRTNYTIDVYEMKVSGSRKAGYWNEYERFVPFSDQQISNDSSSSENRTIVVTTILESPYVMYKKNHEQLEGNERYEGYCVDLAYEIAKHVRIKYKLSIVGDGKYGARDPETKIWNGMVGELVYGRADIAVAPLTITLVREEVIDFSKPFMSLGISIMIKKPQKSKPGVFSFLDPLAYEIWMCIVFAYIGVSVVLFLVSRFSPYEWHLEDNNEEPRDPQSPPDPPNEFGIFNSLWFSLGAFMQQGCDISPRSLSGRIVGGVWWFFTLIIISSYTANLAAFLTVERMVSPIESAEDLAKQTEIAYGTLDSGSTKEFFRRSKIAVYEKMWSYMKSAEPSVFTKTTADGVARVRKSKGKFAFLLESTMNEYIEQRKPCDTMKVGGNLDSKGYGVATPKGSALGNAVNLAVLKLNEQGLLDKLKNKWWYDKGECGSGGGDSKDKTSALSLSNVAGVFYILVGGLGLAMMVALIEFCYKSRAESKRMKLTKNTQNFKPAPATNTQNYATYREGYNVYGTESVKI
Chain of Glutamate receptor ionotropic, AMPA (Rattus norvegicus, UniProt P19491+P19492+P19493+P19490) (P19493 whole entry): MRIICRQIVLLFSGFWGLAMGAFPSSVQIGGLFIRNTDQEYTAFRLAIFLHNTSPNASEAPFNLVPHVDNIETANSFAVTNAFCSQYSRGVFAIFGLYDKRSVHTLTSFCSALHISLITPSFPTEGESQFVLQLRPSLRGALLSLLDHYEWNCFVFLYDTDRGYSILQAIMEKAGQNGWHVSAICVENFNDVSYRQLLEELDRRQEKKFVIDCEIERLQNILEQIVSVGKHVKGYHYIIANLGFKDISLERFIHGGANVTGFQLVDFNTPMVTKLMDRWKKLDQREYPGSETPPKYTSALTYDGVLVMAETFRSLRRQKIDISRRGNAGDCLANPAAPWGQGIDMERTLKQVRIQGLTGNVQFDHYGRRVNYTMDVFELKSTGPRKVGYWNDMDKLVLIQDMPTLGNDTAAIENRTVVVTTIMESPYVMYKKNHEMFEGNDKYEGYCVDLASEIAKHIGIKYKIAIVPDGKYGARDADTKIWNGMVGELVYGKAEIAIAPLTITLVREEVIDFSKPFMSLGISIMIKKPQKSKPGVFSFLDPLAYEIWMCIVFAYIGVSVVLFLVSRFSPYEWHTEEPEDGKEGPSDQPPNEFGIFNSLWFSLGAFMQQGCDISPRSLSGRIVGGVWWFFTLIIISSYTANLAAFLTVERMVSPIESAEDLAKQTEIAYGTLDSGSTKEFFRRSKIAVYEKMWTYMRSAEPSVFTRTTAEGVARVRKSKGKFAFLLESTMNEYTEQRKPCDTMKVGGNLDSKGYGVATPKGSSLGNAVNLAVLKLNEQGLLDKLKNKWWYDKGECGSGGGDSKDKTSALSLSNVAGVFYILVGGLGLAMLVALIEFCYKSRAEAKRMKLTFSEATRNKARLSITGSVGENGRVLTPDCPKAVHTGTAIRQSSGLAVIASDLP
Chain of Glutamate receptor ionotropic, AMPA (Rattus norvegicus, UniProt P19491+P19492+P19493+P19490) (P19490 whole entry): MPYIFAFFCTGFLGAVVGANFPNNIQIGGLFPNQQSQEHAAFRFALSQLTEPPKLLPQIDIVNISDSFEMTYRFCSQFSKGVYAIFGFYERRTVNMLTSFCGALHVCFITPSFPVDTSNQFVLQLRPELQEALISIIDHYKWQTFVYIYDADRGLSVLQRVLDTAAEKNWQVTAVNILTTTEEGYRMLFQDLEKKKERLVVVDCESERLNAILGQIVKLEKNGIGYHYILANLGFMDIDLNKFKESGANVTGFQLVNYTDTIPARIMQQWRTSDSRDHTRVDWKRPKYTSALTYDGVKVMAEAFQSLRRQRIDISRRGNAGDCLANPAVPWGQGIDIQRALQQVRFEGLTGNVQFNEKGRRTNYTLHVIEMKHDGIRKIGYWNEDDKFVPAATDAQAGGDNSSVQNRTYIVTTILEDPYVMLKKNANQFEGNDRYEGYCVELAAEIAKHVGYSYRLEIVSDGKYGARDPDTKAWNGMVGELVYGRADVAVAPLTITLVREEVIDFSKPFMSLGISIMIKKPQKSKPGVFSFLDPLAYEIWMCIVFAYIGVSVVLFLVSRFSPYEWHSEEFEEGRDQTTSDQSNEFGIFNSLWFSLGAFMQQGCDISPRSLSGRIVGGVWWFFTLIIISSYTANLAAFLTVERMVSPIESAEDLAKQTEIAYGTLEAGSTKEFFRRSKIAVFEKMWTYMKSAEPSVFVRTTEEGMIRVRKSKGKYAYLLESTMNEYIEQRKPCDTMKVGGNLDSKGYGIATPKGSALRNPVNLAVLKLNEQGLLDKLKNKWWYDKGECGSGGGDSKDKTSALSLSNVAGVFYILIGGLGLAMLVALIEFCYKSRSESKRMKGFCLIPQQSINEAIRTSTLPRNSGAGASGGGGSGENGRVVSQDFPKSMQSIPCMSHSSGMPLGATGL
Description: (§1) Binding affinity was determined against ionotropic glutamate receptor AMPA in rat brain synaptic membranes using [3H]AMPA as radioligand
Test [3] has as its target Glutamate receptor ionotropic, kainate. Description: Binding affinity for the ionotropic glutamate receptor kainate in rat brain synaptic membranes using [3H]kainate as radioligand. In kind it is cell membranes.
For test [4], the target named is Glutamate receptor ionotropic, NMDA 1 (Rattus norvegicus, UniProt P35439). Nature of the test: Affinity for N-methyl-D-aspartate glutamate receptor 1 in rat brain synaptic membranes, using [3H]glycine as radioligand. The test is classed as cell membranes.
The target of test [5] is Glutamate receptor ionotropic, kainate. Nature of the test: Antagonistic activity against Ionotropic glutamate receptor kainate induced LDH release in cultured cortical neurons in rat after 24 hr application of 500 uM of kainate. The test is classed as functional.
Test [6] is filed under the species Rattus norvegicus. Description: Concentration of compound that inhibits by 50% depolarizations induced by 10 uM AMPA. The test is classed as functional.
Test [7] is filed under the species Rattus norvegicus. Nature of the test: Concentration of compound that inhibits by 50% LDH released by 24 hr application of 500 uM kainate. In kind it is functional, organism-based.
Test [8] addresses T1, Glutamate receptor ionotropic, AMPA. The source holds these as a separate data set.
Description: Inhibition of Ionotropic glutamate receptor AMPA induced depolarization in rat cortical wedge by application of 10 uM of AMPA
The species named for test [9] is Rattus norvegicus. Nature of the test: Concentration of compound that inhibits by 50% LDH released by 24 hr application of 100 uM AMPA. In kind it is functional, organism-based.
The target in test [10] is T1, Glutamate receptor ionotropic, AMPA. The source holds these as a separate data set.
Description: as §1

For the molecule `CN1CCc2c([N+](=O)[O-])cc3[nH]c(=O)c(=O)[nH]c3c2C1`, the IC50 in [1] worked out at 2.5 µM; in [2], 0.063 µM; in test [3] it was 0.368 µM; in test [4] it was 0.37 µM; in test [5] it was 4 µM; in the test filed under Rattus norvegicus [6] it was 0.5 µM. Also, the concentration for half-maximal inhibition (IC50) in the test listed under Rattus norvegicus [7] was 4 µM; in [8] it was 0.5 µM; in the test listed under Rattus norvegicus [9], 2.5 µM; in test [10] it was 0.063 µM.
